pIC50: −log10 of the molar value.

9 compounds from US7732475B2, “Histone deacetylase inhibitors” (Takeda San Diego, Inc., priority 2005, dated 2010) can be followed below.

The target in the experiment is HDAC2 (Homo sapiens, UniProt Q92769). The experiment is described as follows: HDAC2 fluorescence inhibition assay (tBoc-Lys(Ac)-AMC).
HDAC2, sequence (Q92769 with tags, fused parts or gaps): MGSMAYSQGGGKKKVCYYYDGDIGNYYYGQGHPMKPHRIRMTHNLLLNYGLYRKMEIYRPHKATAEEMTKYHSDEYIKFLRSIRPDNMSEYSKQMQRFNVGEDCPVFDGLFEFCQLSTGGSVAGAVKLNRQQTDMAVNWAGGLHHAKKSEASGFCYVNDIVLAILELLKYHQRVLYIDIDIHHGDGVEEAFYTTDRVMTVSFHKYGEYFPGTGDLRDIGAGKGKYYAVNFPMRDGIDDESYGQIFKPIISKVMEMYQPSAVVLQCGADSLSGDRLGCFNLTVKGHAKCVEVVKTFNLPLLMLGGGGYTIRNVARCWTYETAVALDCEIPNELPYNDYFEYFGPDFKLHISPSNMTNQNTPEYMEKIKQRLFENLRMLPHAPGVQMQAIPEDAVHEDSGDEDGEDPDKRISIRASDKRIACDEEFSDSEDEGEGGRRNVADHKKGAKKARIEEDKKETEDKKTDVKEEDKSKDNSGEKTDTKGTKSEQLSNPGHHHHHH
By pIC50 is commonly meant −log10 of the IC50, conventionally taken in molar units. Read a high pIC50 as a small IC50. As to `Nc1ccccc1NC(=O)c1ccc(Cn2ncc3cc(NC(=O)OCc4ccccc4)ccc32)cc1` [Example 15, Benzyl 1-(4-((2-aminophenyl)carbamoyl)benzyl)-1H-indazol-5-ylcarbamate], the pIC50 was no less than 7.30. To `COc1cc2cn(Cc3ccc(C(=O)Nc4ccccc4N)cc3)nc2cc1OC` [Example 98, N-(2-aminophenyl)-4-((5,6-dimethoxy-2H-indazol-2-yl)methyl)benzamide] belongs no less than 7.30; to `Cc1c2cc(C(F)(F)F)ccc2nn1Cc1ccc(C(=O)Nc2ccccc2N)cc1` [Example 95, N-(2-aminophenyl)-4-((3-methyl-5-(trifluoromethyl)-2H-indazol-2-yl)methyl)benzamide], no less than 7.30; to `CCNC(=O)c1cnn(Cc2ccc(C(=O)Nc3ccccc3N)cc2)c1` [Example 135, 1-(4-(2-aminophenylcarbamoyl)benzyl)-N-ethyl-1H-pyrazole-4-carboxamide], 7.00 to 7.30.

`Cc1c2c(F)cccc2nn1Cc1ccc(C(=O)Nc2ccccc2N)cc1` [Example 55, N-(2-aminophenyl)-4-((4-fluoro-3-methyl-2H-indazol-2-yl)methyl)benzamide] showed a pIC50 of 7.00 to 7.30. `Nc1ccccc1NC(=O)c1ccc(Cn2cc(C(=O)NCCN3CCCCC3)cn2)cc1` [Example 155, 1-(4-(2-aminophenylcarbamoyl)benzyl)-N-(2-(piperidin-1-yl)ethyl)-1H-pyrazole-4-carboxamide]: the pIC50 was no less than 7.30.

For `Nc1ccccc1NC(=O)c1ccc(Cn2cc3cc(NC(=O)OCc4ccccc4)ccc3n2)cc1` [Example 16, Benzyl 2-(4-((2-aminophenyl)carbamoyl)benzyl)-2H-indazol-5-ylcarbamate], the pIC50 is no less than 7.30. `Nc1ccccc1NC(=O)c1ccc(Cn2cc3c(n2)CCCC3)cc1` [Example 129, N-(2-aminophenyl)-4-((4,5,6,7-tetrahydro-2H-indazol-2-yl)methyl)benzamide]: the negative-log IC50 (pIC50) was 7.00 to 7.30. The value for `Nc1ccc(-c2ccccc2)cc1NC(=O)c1ccc(Cn2cc3ccccc3n2)cc1` [Example 27, N-(4-Amino-biphenyl-3-yl)-4-indazol-2-ylmethyl-benzamide] was no less than 7.30.
